Reference: patent US20140341857A1, “COMBINATION OF ONCOLYTIC AD[…] HISTONE DEACETYLASE INHIBITORS” (INSTITUT GUSTAVE ROUSSY, priority 2011, published 2014)

How the values were obtained:
HCT116 = assay: MTT assay, growth inhibition by HDACi after 48 h; format: cell-based
Protocol: (§1) HT29, HCT116, SW480, SW620 colon adenocarcinomas cell lines, 911 human embryonic retinal cell lines and HEK293, a human embryonic kidney cell line expressing the adenoviral E1 protein were purchased from ATCC (American Tissue Culture Collection, Manassas, Va., USA).
HCT116 were cultured, in Mc Coy's 5A mediums with 10% heat-inactivated-FBS.
(§2) First, three different histone deacetylase inhibitors: Trichostatin A (TSA), an hydroxamic acid; Valproic Acid (VPA), a short-chain aliphatic acid, and sodium butyrate (Nabu), a short-chain aliphatic acid, were evaluated for their ability to induce inhibition of the growth of these cells after 48 h of treatment using an MTT assay.

HT29 = assay: MTT assay, growth inhibition by HDACi after 48 h; format: cell-based
Source text: as §1
HT29 and 911 were maintained in Dulbecco's modified Eagle's medium (DMEM; GIBCO) supplemented with 10% heat-inactivated fetal bovine serum (FBS; GIBCO).
as §2

SW620 = assay: MTT assay, growth inhibition by HDACi after 48 h; format: cell-based
Protocol: as §1
(§3) The same medium was used for SW480 and SW620 supplemented with 1 mM Sodium Pyruvate (Invitrogen/GIBCO)
as §2

SW480 = assay: MTT assay, growth inhibition by HDACi after 48 h; format: cell-based; conditions: SW480, 48 h of treatment
Protocol: as §1, §3, §2

γH2AX [1] = assay: γH2AX expression, Western blot; format: cell-based; conditions: CRAd MOI 15.6, VPA 10mM (the IC50 of HT29; cell line and time not given)
Protocol: Colon carcinoma HT29 and HCT116 cells (5·10^5) in MW6 were treated with Δ24 CRAd (MOI 15.6 vp/cell), with or without VPA (IC25 and IC50). At indicated time points p.i., the cells were harvested and protein extracts were prepared in RIPA buffer (10 mM Tris base pH 8.8, NaCl 150 mM, EDTA 1mM, NP-40 1%, deoxycholic acid 1%) supplemented with mini EDTA proteases (ROCHE LABORATORY). Protein extracts were sonicated and centrifuged. Then, protein extracts (25 μg) were run into a NuPage (INVITROGEN, France), transferred onto a nitrocellulose membrane, and probed with anti-phospho-H2AX (Ser139) antibody (clone JBW301, MILLIPORE) or anti-actin antibodies (AC-15, SIGMA-ALDRICH) followed by HRP-conjugated secondary antibody. γH2AX was quantified by IMAGE-J software and expressed as arbitrary units relative to untreated cells.

[2] = system: E1A and fiber adenoviral proteins; assay: Western blot of early (E1A) and late (fiber) adenoviral proteins in HT29 cells; format: cell-based
Protocol: For determining viral protein expression, HT29 cells (5·10^5) in MW6 medium were treated with Δ24 CRAd (MOI 15.6 vp/cell), with or without VPA. At different time points p.i. (24 h, 48 h, and 72 h), tumor cells were harvested and protein extracts were prepared in RIPA buffer (10 mM Tris base pH 8.8, NaCl 150 mM, EDTA 1 mM, NP-40 1%, deoxycholic acid 1%) supplemented with mini EDTA proteases (Roche laboratory). In order to quantify the expression of early (E1A) and late (fiber) adenoviral proteins, proteins (25 μg) were run into a NuPage (Invitrogen, France), transferred onto a nitrocellulose membrane, and probed with anti-fiber antibody (AB4 clone 4D2, THERMOSCIENTIFIC), anti-E1A antibody (sc-430, Santa Cruz), or (as a control) anti-actin antibody (Clone AC-15, SIGMA-ALDRICH) followed by HRP-conjugated secondary antibody.

Δ24 CRAd = assay: CRAd production in HT29 cells, plaque assay on 911 cells; format: cell-based; conditions: HT29, CRAd MOI 15.6, VPA IC25 and IC50, 3 days
Protocol: Colon cancer HT29 cells (5·10^5) in 6-well plates were infected with Δ24 CRAd (MOI 15.6 vp/cell) alone or in combination with VPA (IC50 and IC25) in adequate medium with 2% FBS. After 1 h, 3 ml of growth medium with or without VPA was added. Then, cells were scrapped and cells and medium were harvested at different times post-infection (from day 1 to day 6). After submission of cells and medium to freeze-thaw cycles, the amount of infectious particles was determined by plaque assay on 911 cells and expressed as plaque forming unit (pfu)/ml.
In a second series of experimentations, HT29 cells (5·10^5 cells/well) in 6-well plates were infected with CRAd (MOI 15.6 vp/cell) with or without VPA (IC50 and IC25) in adequate medium supplemented with 2% FBS. After 1 h, 3 ml of growth medium with or without VPA was added. After 3 days, cells and medium were independently harvested and lysed by freeze-thaw cycles. Then, the amount of infectious particles was measured by plaque assay on 911 cells, and expressed as pfu/ml.

HT29 cells [3] = assay: MTT cell survival after oncolytic adenovirus with or without HDACi; format: cell-based; conditions: HT29, 3 days p.i., co-treatment with VPA and AE18
Protocol: Then the cells were treated with one of these HDACis (at concentrations in the range of IC50/2 and IC50) and transduced with the oncolytic adenovirus Δ24, at increasing multiplicity of infection (MOI). The survival of the cells at day 3 p.i. was evaluated using the MTT assay.
Colon carcinoma cells (HT29, HCT116, SW480, SW620) were plated in quadruplicates on 96-well plates (10^4 cells/well) and were treated with different MOI of Δ24 CRAd (ranging from 0 to 1000 vp/cell), VPA (0, IC25 or IC50) or a combination of CRAd and VPA. After 3 days, cell viability was measured with MTT assay and the results (means+SD) were expressed relative to non-infected cells treated with different VPA doses (0, IC25 and IC50). The results are representative of three experiments.
Colon carcinoma cells (HT29, HCT116) were treated in quadruplicates with Δ24 CRAd (MOI 15.6 vp/cell) without or with VPA (IC25 or IC50) and cell viability was measured at different time points thereafter using a MTT assay. The results (means+SD) were expressed relative to untreated or VPA (0, IC25 and IC50)-treated cells at the same time point. […] They are representative of two experiments.
The effects of a co-treatment with the oncolytic adenovirus Δ24 and the histone deacetylase inhibitor VPA on the survival of HT29 cells 3 days p.i. were compared with those of a co-treatment with VPA and the recombinant adenovirus AE18. […]

HT29 cells [4] = assay: Cell size and nucleus morphology, Giemsa staining; format: cell-based; conditions: HT29, 72 h, CRAd MOI 15.6, VPA IC25/IC50
Protocol: HT29 cells in 6-well plates (5·10^5 cells/well) were untreated or treated with Δ24 CRAd (MOI 15.6 vp/cell), VPA (IC25, IC50) or both. After 72 h, cells were harvested, cytospined on slides, fixed with Wright and stained for 15 minutes in Giemsa solution. After washing, dry slides were mounted with a coverslip. Cells and nuclei observations were performed using phase-contrast microscopy.

HT29 tumor xenografts = assay: HT29 tumor xenograft growth in nude mice; format: in vivo, athymic NU/NU female mice
Protocol: HT29 cells (10^7 cells) in 100 μl PBS were injected subcutaneously into the right flank of athymic NU/NU female mice housed at the Institut Gustave Roussy.
First, the sensitivity of tumor xenografts to VPA treatment was evaluated. When tumors reached 70-100 mm^3, mice were injected intraperitoneally with VPA (200 mg/kg or 300 mg/kg) or PBS in a volume of 200 μl five consecutive days per week. Tumor volume was evaluated twice a week for 4 weeks by measuring with calipers.
In a second series of experimentation, when tumors reached 70-100 mm^3, mice were first injected subcutaneously with Δ24 CRAd, or with a non-replicative adenovirus (AdCO1, deleted of region E1) or with PBS three consecutive days and every 7 days for 4 weeks. In parallel and beginning at day 4, mice received intraperitoneal injection of VPA (300 mg/kg) or PBS in a volume of 200 μl five consecutive days per week until the end of the protocol. Tumor growth was measured twice a week for 4 weeks.

γH2AX [5] = assay: γH2AX expression, confocal microscopy in HT29 cells; format: cell-based; conditions: HT29, 3 days, CRAd MOI 15.6, VPA IC25/IC50
Protocol: HT29 cells were seeded at 5·10^5 cells/well on 6-well plates and cultured overnight. Cells were treated with Δ24 CRAd (MOI 15.6 vp/cell), VPA (IC25, IC50) or both (CRAd+VPA), or with the non-replicative adenovirus AE18 during 72 h. Then non-adherent tumor cells and adherent tumor cells were detached with TrypLE™ Express (1X) (INVITROGEN) cytospined on slides (500 rpm, 5 min), washed with PBS and fixed with 4% paraformaldehyde for 30 min. After permeabilization with 0.5% Triton X-100 for 10 min, samples were blocked with 3% BSA for 30 min. Samples were exposed to primary antibodies (1:1,000 anti-γH2AX, for 1-2 h in PBS/BSA) followed by Alexa Fluor-conjugated secondary antibody staining for 1 h. When filamentous actin was also stained, tetramethyl-rhodamine B isothiocyanate-labeled phalloidin (SIGMA) was added with the secondary antibody incubation. Cells were washed four times with PBS after secondary antibody staining and then mounted on glass slides by using mounting medium with DAPI (VECTASHIELD; Vector Laboratories). All images were obtained by using the ZEISS LSM 510 confocal microscope.

viral hexon protein = assay: Immunohistochemistry of viral hexon protein in HT29 tumor xenografts; format: in vivo, mice; conditions: tumors excised at day 10, VPA 300 mg/kg
Protocol: The effects of VPA on CRAd replication were also tested in vivo in HT29 tumor xenografts of mice injected with PBS, Δ24 CRAd, or VPA (300 mg/kg)+CRAd as described in Example 2 above. Tumors were excised at day 10, and expression of viral hexon protein was evaluated by immunohistochemistry. Tumors were fixed in FineFix (from IGR) paraffin-embedded, and cut into 4-μm-thick sections. Hematoxylin-eosin-safranin staining was performed on all of the xenografts for analysis of morphology. The polyclonal anti-adenovirus hexon protein antibody AB 1056 (CHEMICON INTERNATIONAL, Temecula, Calif.), diluted 1:300, was detected by a biotinylated rabbit antigoat immunoglobulin antibody streptavidin-horseradish peroxidase conjugate (DAKO), and the chromogen diaminobenzidine. Slides were counterstained with hematoxylin.

HT29 cells [6] = assay: LDH release cell death assay; format: cell-based; conditions: HT29, day 3, CRAd MOI 15.6 or VPA IC25/IC50 alone
Source text: Colon carcinoma HT29 cells were untreated or treated with CRAd (MOI 15.6 vp/cell), VPA (IC25 or IC50) or both. After 3 days, cell death was quantified by determination of Lactate deshydrogenase (LDH) release in cell supernatant, using Tox Cytotoxicity Assay kit (TOX7, Sigma Aldrich, France). The results were expressed relative to total LDH level obtained with cells treated with identical conditions and permeabilized with triton 0.1%. The results (Mean+SD) are shown on FIG. 7. They are representative of two experiments.

p21 = p21 expression, Western blot; format: cell-based; conditions: HCT116, VPA IC25 and IC50, 24, 48, 72 h
Protocol: Colon cancer cells HT29 or HCT116 (5·10^5) in MW6 were treated with Δ24 CRAd (MOI 15.6 vp/cell), with or without VPA (IC25 and IC50). At 24, 48, and 72 h p.i., tumor cells were harvested and protein extracts were prepared in RIPA buffer (10 mM Tris base pH 8.8, NaCl 150 mM, EDTA 1 mM, NP-40 1%, deoxycholic acid 1%) supplemented with mini EDTA proteases (ROCHE LABORATORY). Proteins (25 μg) were run into a NuPage (INVITROGEN, France), transferred onto a nitrocellulose membrane, and probed with anti-p21/Waf1 mouse monoclonal antibody (EA10, CALBIOCHEM) and anti-actin antibody (AC-15, SIGMA-ALDRICH), followed by HRP-conjugated secondary antibody. p21 expression was quantified by IMAGE-J software and expressed as arbitrary units relative to untreated cells.

[7] = Homo sapiens, HCT-116, HCT116, 48 h of treatment
[8] = Homo sapiens, HT-29, HT29, 48 h of treatment
[9] = Homo sapiens, SW-620, SW620, 48 h of treatment

CCCC(=O)[O-].[Na+] [Nabu, sodium butyrate]
IC50 (HCT116; [7]): 1 mM
IC50 (HT29; [8]): 4 mM
IC50 (SW620; [9]): 3 mM
IC50 (SW480; Homo sapiens): 7 mM

CC(/C=C/C(=O)NO)=C\[C@@H](C)C(=O)c1ccc(N(C)C)cc1 [TSA, Trichostatin A]
IC50 (HCT116; HCT116, 48 h of treatment): 3.5e-05 mM
IC50 (HT29; HT29, 48 h of treatment): 0.00015 mM
IC50 (SW620; SW620, 48 h of treatment): 3.7e-05 mM
IC50 (SW480): 7.5e-05 mM

CCCC(CCC)C(=O)O [VPA, Valproic Acid]
IC50 (HCT116; [7]): 1.2 mM
level of γH2AX relative to untreated cells (γH2AX [1]): 5.6 fold
E1A expression ([2]; HT29, CRAd MOI 15.6, 24 h, 48 h, 72 h): did not modify E1A expression
expression of the fiber protein ([2]; HT29, CRAd MOI 15.6, day 1): strongly diminished
expression of the fiber protein ([2]; HT29, CRAd MOI 15.6, day 2 and 3): minor effect
viral content in cell-associated and extracellular fractions (Δ24 CRAd): reduction of viral content
effect of VPA on the cytotoxicity of the recombinant adenovirus AE18 (HT29 cells [3]): no effect
cell size and nucleus morphology (HT29 cells [4]): increase in cell size and cell nuclei with well-defined shape
kinetic of tumor growth vs PBS (HT29 tumor xenografts; VPA 200 mg/kg intraperitoneally, five consecutive days per week, 4 weeks): No difference
tumor growth vs PBS (HT29 tumor xenografts; VPA 300 mg/kg intraperitoneally, five consecutive days per week, 4 weeks): significant delay in tumor growth
toxicity (HT29 tumor xenografts; VPA 300 mg/kg intraperitoneally, mice): did not trigger significant toxicity
tumor growth compared to PBS-injected mice (HT29 tumor xenografts; second series: virus subcutaneously three consecutive days every 7 days, VPA 300 mg/kg i.p. from day 4, 4 weeks): reduction of tumor growth
γH2AX expression (confocal microscopy) (γH2AX [5]): much less than CRAd
amount of hexon protein in the tumor (viral hexon protein): decreased
LDH release compared to untreated cells (HT29 cells [6]): increase in LDH release
increase in p21 expression compared to untreated cells (p21): up to 6 fold
IC50 (HT29; [8]): 10 mM
IC50 (SW620; [9]): 5 mM
IC50 (SW480; Homo sapiens): 10 mM
